The record followed here is patent publication US11014917B2, “5-fluoro-c-(aryl or heterocyclyl)-glycoside derivatives useful as dual SGLT1 / SGLT2 modulators” (Janssen Pharmaceutica NV, priority 2017, dated 2021).

SMILES strings stand for the structures.

In one test the target is T1, human SGLT2 (Homo sapiens, UniProt P31639).
T1 construct: expressed in transfected cells
T1 sequence (P31639 1-672): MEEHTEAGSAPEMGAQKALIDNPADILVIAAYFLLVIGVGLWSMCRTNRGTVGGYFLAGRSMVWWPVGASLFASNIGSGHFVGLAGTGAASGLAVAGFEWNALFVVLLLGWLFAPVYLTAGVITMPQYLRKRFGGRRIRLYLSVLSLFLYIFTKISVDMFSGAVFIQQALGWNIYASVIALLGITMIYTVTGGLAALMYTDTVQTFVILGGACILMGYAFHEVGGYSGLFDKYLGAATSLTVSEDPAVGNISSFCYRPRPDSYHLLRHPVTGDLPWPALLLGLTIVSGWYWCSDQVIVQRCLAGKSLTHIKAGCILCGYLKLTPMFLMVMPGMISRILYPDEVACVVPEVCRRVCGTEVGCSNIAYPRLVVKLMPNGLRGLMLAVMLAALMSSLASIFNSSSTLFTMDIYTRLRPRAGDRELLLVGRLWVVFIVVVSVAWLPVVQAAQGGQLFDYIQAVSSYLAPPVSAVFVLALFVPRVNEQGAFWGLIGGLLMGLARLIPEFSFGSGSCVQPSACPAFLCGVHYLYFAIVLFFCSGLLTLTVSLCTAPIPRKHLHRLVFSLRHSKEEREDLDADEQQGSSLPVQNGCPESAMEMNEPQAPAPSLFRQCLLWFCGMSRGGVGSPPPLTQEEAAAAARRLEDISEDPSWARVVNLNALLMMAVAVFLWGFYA
Description: SGLT2 assay: Na-dependent 14C-AMG uptake in CHO-K1 cells stably expressing human SGLT2. The format is cell-based. The conditions noted are these: for SGLT2 %-inhibition: @ 0.3 μM; for IC50: average if tested more than once. How it is done:
(§1) The ability of the compounds of formula (I) of the present invention to treat an SGLT-mediated condition was determined using the following procedures:
(§2) SGLT1 and SGLT2 were cloned in form of cDNA from human small intestine (Genbank M24847), and from human kidney (Genbank M95549), respectively. Subsequently, each full cDNA was subcloned into pcDNA with each construct's integrity verified through follow-on sequencing. To generate CHO-K1 cells that stably express human SGLT1 or human SGLT2, CHO-K1 cells were transfected using DMRIE-C reagent (Life Technologies, Gaithersburg, Md.). Transfected cells were then selected in the presence of 500 μg/ml of the Geneticin (G418 Cellgro Catalog No. 30234-Cl)
(§3) Individual clones were then characterized using the following cell-based assay for sodium-dependent glucose transport:
(§4) Inhibition of SGLT1 and SGLT2 activity was assessed in CHO K1 cells stably expressing either human SGLT1 or SGLT2, using the SGLT specific glucose analog methyl-glucopyranoside (Sigma Catalog No. M-9376). Cells were plated (45,000 cells/well) in white wall 96-well plates (COSTAR, Cat #3903) for 24 hours in growth medium, then a final concentration of 10 mM Na-Butyrate (ALDRICH Cat #30341-0) was added. The cells were incubated for 24 hours. On the day of the assay, cells were rinsed and treated with test compounds (at concentrations of 0.001 μM to 10 μM) in assay buffer (50 mM HEPES, 20 mM Tris base, 5 mM KCl, 1 mM MgCl2, 1 mM CaCl2 and 137 mM NaCl, pH 7.4) for 10 minutes. Cells were then incubated with ^14C-a-methyl-d-glucopyranoside (AMG, Amersham Catalog No. CFB 76), using 0.07 μCi per well in 500 μM AMG final concentration. The cells were incubated for 2 hours at 37° C. with 5% CO2 and washed two times with ice-cold Phosphate Buffer Solution (Cellgro Catalog No. 21030-CV). The cells were then solubilized by adding 60 μl of MICROSCINT™20 and the Na-dependent ^14C-AMG uptake was quantified by measuring radioactivity. Plates were counted in a TopCount (Packard, Meriden, Conn.)
(§5) Representative compounds of the present invention were tested according to the procedures as described in Biological Example 1 and 2 above, with results as listed in Table 5, below. Results are reported as the %-inhibition or IC50 value. Variability for the functional assay was typically within 20%.

The target in a further test is T2, human SGLT1 (Homo sapiens, UniProt P13866).
T2 construct: expressed in transfected cells
T2 sequence (P13866 1-664): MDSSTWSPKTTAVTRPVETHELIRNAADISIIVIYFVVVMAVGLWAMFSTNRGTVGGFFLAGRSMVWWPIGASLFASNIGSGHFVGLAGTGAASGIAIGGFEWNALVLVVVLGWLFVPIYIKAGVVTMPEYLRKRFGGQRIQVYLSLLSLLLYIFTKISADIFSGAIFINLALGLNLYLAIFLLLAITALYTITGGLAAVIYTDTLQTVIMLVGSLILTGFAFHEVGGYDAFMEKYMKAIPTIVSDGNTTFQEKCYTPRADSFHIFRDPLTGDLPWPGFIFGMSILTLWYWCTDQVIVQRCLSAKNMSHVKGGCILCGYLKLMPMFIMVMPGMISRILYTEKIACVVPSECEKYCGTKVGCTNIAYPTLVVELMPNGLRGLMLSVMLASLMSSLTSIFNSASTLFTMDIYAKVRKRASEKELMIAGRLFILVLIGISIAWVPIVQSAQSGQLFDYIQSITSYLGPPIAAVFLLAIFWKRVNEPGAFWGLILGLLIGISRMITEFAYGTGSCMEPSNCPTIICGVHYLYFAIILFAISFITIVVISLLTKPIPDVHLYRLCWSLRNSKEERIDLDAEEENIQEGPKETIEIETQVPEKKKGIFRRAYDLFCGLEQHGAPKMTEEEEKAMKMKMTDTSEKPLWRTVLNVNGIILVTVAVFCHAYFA
Description: SGLT1 assay: Na-dependent 14C-AMG uptake in CHO-K1 cells stably expressing human SGLT1. The conditions noted are these: for SGLT1 %-inhibition / inhibition at 0.3 µM: @ 0.3 μM; for IC50: average if tested more than once. The format is cell-based. The method, then:
as §1, §2, §3, §4, §5

In the case of `CC1COc2c(Cc3ccc4c(c3)OCCO4)cc(C3OC(CO)C(F)C(O)C3O)cc21` (mixture of isomers) [Compound 95], the SGLT2 %-inhibition on human SGLT2 is recorded as 62.7% @ 0.3 μM. On human SGLT1, this compound displayed an SGLT1 %-inhibition of 45.3% @ 0.3 μM. The IC50 is the concentration that inhibits the measured activity by half. On to `COc1cc(O)c(C2OC(C(C)O)C(F)C(O)C2O)cc1Cc1cc2ccccc2s1` (single isomer, unassigned) [Compound 52], for which the IC50 came out at 9 nM against human SGLT2 and 15 nM against human SGLT1. For the compound `COc1cc(O)c(C2OC(C(C)O)C(F)C(O)C2O)cc1Cc1cc2ccccc2s1` (single isomer, unassigned) [Compound 53], the values for the IC50 against human SGLT2 and against human SGLT1 were 26 nM and 104 nM, respectively. `COc1cc(OCC#N)c([C@@H]2O[C@H](C(C)O)[C@@H](F)[C@H](O)[C@H]2O)cc1Cc1cc2ccccc2s1` (single isomer, unassigned) [Compound 71] yielded an SGLT2 %-inhibition at human SGLT2 of 30.0% @ 0.3 μM. The compound further yielded an SGLT1 %-inhibition at human SGLT1 of 76.4% @ 0.3 μM.

Take `COc1cc(OC)c(C2OC(C(C)O)C(F)C(O)C2O)cc1Cc1cc2ccccc2s1` (single isomer, unassigned) [Compound 72]: the IC50 stood at 24 nM against human SGLT2 and 127 nM on human SGLT1. In the same order, the values of `COc1cc(O)c([C@@H]2O[C@H](CO)[C@@H](F)[C@H](O)[C@H]2O)cc1Cc1cc2ccccc2s1` [Compound 2, (2S,3R,4R,5S,6R)-2-(5-(benzo[b]thiophen-2-ylmethyl)-2-hydroxy-4-methoxyphenyl)-5-fluoro-6-(hydroxymethyl)tetrahydro-2H-pyran-3,4-diol] are 8 nM and 9 nM. The matching figures for `Cc1cc(O)c([C@@H]2O[C@H](CO)[C@@H](F)[C@H](O)[C@H]2O)cc1Cc1cc2ccccc2s1` [Compound 4]: 4 nM and 14 nM.

On to `OC[C@H]1O[C@@H](c2cc(Cc3cc4ccccc4s3)c(Cl)cc2O)[C@H](O)[C@@H](O)[C@@H]1F` [Compound 7], for which the concentration for half-maximal inhibition (IC50) at human SGLT2 came to 6 nM; against human SGLT1, 18 nM. In the same order, the values of `COC[C@H]1O[C@@H](c2cc(Cc3cc4ccccc4s3)c(OC)cc2O)[C@H](O)[C@@H](O)[C@@H]1F` [Compound 9, (2S,3R,4R,5S,6R)-2-[5-(1-benzothiophen-2-ylmethyl)-2-hydroxy-4-methoxyphenyl]-5-fluoro-6-(methoxymethyl)oxane-3,4-diol] are 107 nM and 126 nM. With `COc1cc(O)c([C@@H]2O[C@H](C)[C@@H](F)[C@H](O)[C@H]2O)cc1Cc1cc2ccccc2s1` [Compound 10], the concentration for half-maximal inhibition (IC50) against human SGLT2 came to 82 nM; at human SGLT1, 85 nM. Take `COc1cc(O)c([C@@H]2O[C@H](CF)[C@@H](F)[C@H](O)[C@H]2O)cc1Cc1cc2ccccc2s1` [Compound 11, (2S,3R,4R,5S,6R)-2-[5-(1-benzothiophen-2-ylmethyl)-2-hydroxy-4-methoxyphenyl]-5-fluoro-6-(fluoromethyl)oxane-3,4-diol]: the IC50 on human SGLT2 was determined as 59 nM; against human SGLT1, 91 nM. In the same order, the values of `COc1cc(OC)c([C@@H]2O[C@H](CO)[C@@H](F)[C@H](O)[C@H]2O)cc1Cc1cc2ccccc2s1` [Compound 12] are 24 nM and 100 nM. For the compound `Cc1c(Cc2cc3ccccc3s2)cc([C@@H]2O[C@H](CO)[C@@H](F)[C@H](O)[C@H]2O)c(O)c1C` [Compound 13], the IC50 against human SGLT2 was 7 nM; on human SGLT1, 15 nM. `COc1c(Cc2cc3ccccc3s2)cc([C@@H]2O[C@H](CO)[C@@H](F)[C@H](O)[C@H]2O)c(O)c1C` [Compound 14] had an SGLT2 %-inhibition at human SGLT2 of 36.0% @ 0.3 μM. At human SGLT1, this compound came in with an SGLT1 %-inhibition of 69.3% @ 0.3 μM.

`COc1c(Cc2cc3ccccc3s2)cc([C@@H]2O[C@H](CO)[C@@H](F)[C@H](O)[C@H]2O)c(OC)c1C` [Compound 15]: the half-maximal inhibitory concentration (IC50) is 68 nM against human SGLT2 and 100 nM on human SGLT1.

`Cc1cc(O)c([C@@H]2O[C@H](C)[C@@H](F)[C@H](O)[C@H]2O)cc1Cc1cc2ccccc2s1` [Compound 16, (2S,3R,4R,5S,6R)-2-(5-(benzo[b]thiophen-2-ylmethyl)-2-hydroxy-4-methylphenyl)-5-fluoro-6-methyl-tetrahydro-2H-pyran-3,4-diol]: the IC50 amounted to 29 nM against human SGLT2 and 111 nM against human SGLT1. The matching figures for `COc1cc(C)c(Cc2cc3ccccc3s2)cc1[C@@H]1O[C@H](CO)[C@@H](F)[C@H](O)[C@H]1O` [Compound 18]: 18 nM and 68 nM. The compound `COC[C@H]1O[C@@H](c2cc(Cc3cc4ccccc4s3)c(C)cc2O)[C@H](O)[C@@H](O)[C@@H]1F` [Compound 19] had an SGLT2 %-inhibition at human SGLT2 of 68.1% @ 0.3 μM. The SGLT1 %-inhibition at human SGLT1 was 47.6% @ 0.3 μM.

`Cc1cc(O)c([C@@H]2O[C@H](CF)[C@@H](F)[C@H](O)[C@H]2O)cc1Cc1cc2ccccc2s1` [Compound 20, (2S,3R,4R,5S,6R)-2-(5-(benzo[b]thiophen-2-ylmethyl)-2-hydroxy-4-methylphenyl)-5-fluoro-6-(fluoromethyl)-tetrahydro-2H-pyran-3,4-diol]: the IC50 at human SGLT2 was 402 nM; at human SGLT1, 114 nM. In the case of `COc1cc(Cl)c([C@@H]2O[C@H](CO)[C@@H](F)[C@H](O)[C@H]2O)cc1Cc1cc2ccccc2s1` [Compound 21], the IC50 was determined as 112 nM on human SGLT2 and 313 nM at human SGLT1. As usually defined, the inhibition is the drop in the measured response relative to a control, in per cent. Higher therefore signals a response far below the control. The compound `COc1cc(O)c([C@@H]2O[C@H](CC#N)[C@@H](F)[C@H](O)[C@H]2O)cc1Cc1cc2ccccc2s1` [Compound 22] gave an IC50 at human SGLT2 of 241 nM. The compound further had an inhibition at 0.3 µM against human SGLT1 of 62.7%.

In the case of `Cc1cc(O)c([C@@H]2O[C@H](CC#N)[C@@H](F)[C@H](O)[C@H]2O)cc1Cc1cc2ccccc2s1` [Compound 23], at human SGLT2, the midpoint of inhibition, the IC50, lay at 69 nM. For the same compound, 0.3 µM produced 65.2% inhibition against human SGLT1. Take `Cc1cc(O)c([C@@H]2O[C@H](CN)[C@@H](F)[C@H](O)[C@H]2O)cc1Cc1cc2ccccc2s1` [Compound 24]: the IC50 against human SGLT2 turned out to be 332 nM; on human SGLT1, 977 nM. `COc1cc(O)c([C@@H]2O[C@H](CN)[C@@H](F)[C@H](O)[C@H]2O)cc1Cc1cc2ccccc2s1` [Compound 28] gave an SGLT2 %-inhibition on human SGLT2 of 50.3% @ 0.3 μM.

Turning to `CCOc1cc(O)c([C@@H]2O[C@H](CO)[C@@H](F)[C@H](O)[C@H]2O)cc1Cc1cc2ccccc2s1` [Compound 30], the SGLT2 %-inhibition at human SGLT2 worked out at 51.0% @ 0.3 μM. Same read-out and setting: in the case of `CC(C)Oc1cc(O)c([C@@H]2O[C@H](CO)[C@@H](F)[C@H](O)[C@H]2O)cc1Cc1cc2ccccc2s1` [Compound 32] it was 15.3% @ 0.3 μM.
